# Key:
# Chlamydomonas = test: growth (cell counts) of microalgae in the presence of precursor compound; assay type: cell-based, Chlamydomonas reinhardtii; conditions: 100 μg/ml, cell counts on days 0, 2, 4 and 7, relative to growth controls
# Method: (§1) Three 15 ml cultures of each of the microalgae listed in Table III above were grown in 30 ml flasks. Growth control cultures contained algae and medium only. Growth control cultures in the presence of solvent contained algae, medium, and 0.06 ml of methanol, the solvent chosen for the precursor compound. Experimental cultures contained algae, medium, and 0.06 ml of a 25 mg/ml solution of (S)-(−)-3-(Benzyloxycarbonyl)-4-oxazolidinecarboxylic acid (precursor compound) dissolved in methanol, yielding a final concentration of 100 μg/ml. Cell counts were performed using a haemocytometer on days 0, 2, 4 and 7.
# Platymonas = test: as above; assay type: cell-based, Platymonas sp.; conditions: 100 μg/ml, cell counts on days 0, 2, 4 and 7, relative to growth controls
# Method: as §1
# Phaeodactylum = test: as above; assay type: cell-based, Phaeodactylum tricornutum; conditions: 100 μg/ml, cell counts on days 0, 2, 4 and 7, relative to growth controls
# Method: as §1
# as §1, with “VIII” for “III”, “Precursor 2.” for “the precursor compound.”, “tert-butyl[S-(R*-R*)]-(−)-(1-oxiranyl-2-phenylethylcarbamate)” for “(S)-(−)-3-(Benzyloxycarbonyl)-4-oxazolidinecarboxylic acid”, “concentration in the culture medium” for “concentration”
# Cryptocrysis rubens = test: final biotransformation culture, 7 days in the presence of precursor; assay type: cell-based; conditions: 200 μg/ml precursor, starting cell concentration not determined
# Method: (§2) Table V below lists each microalgae in the final panel, its starting cell concentration, the concentration of precursor compound in the growth medium, the starting and final cell count, and the method of separation of the resulting biomass from the culture supernatant. The final panel of algal strains were grown for 7 days under the conditions listed in Table III above in the presence of the precursor compound prior to separation of the resulting biomass from the culture supernatant.
# Moromastix sp. = test: as above; assay type: cell-based; conditions: 200 μg/ml precursor, starting cell concentration 6.16 × 10^5
# Method: as §2
# Chloromonas rosae = test: as above; assay type: cell-based; conditions: 100 μg/ml precursor, starting cell concentration 1.75 × 10^5
# Method: as §2
# Olithodiscus sp. = test: as above; assay type: cell-based; conditions: 50 μg/ml precursor, starting cell concentration 1.09 × 10^6
# Method: (§3) Table V below lists each microalgae in the final panel, its starting cell concentration, the concentration of precursor compound in the growth medium, the starting and final cell count, and the method of separation of the resulting biomass from the culture supernatant. The final panel of algal strains were grown for 7 days under the conditions listed in Table III above in the presence of the precursor compound prior to separation of the resulting biomass from the culture supernatant. Cell counts were not determined in every case for the strains listed in Table V. Table X below lists each microalgae in the final panel, its starting cell concentration, the concentration of precursor compound in the growth medium, the starting and final cell count, and the method of separation of the resulting biomass from the culture supernatant. The final panel of algal strains was grown for 7 days under the conditions listed in Table VIII above in the presence of Precursor 2 prior to separation of the resulting biomass from the culture supernatant.
# [1] = system: Chlamydomonas reinhardtii; test: as above; assay type: cell-based; conditions: 200 μg/ml precursor, starting cell concentration 2.2 × 10^7
# Method: as §3
# Cryptomonas ovata = test: as above; assay type: cell-based; conditions: 200 μg/ml precursor, starting cell concentration not determined
# Method: as §3
# Euglena gracilis = test: as above; assay type: cell-based; conditions: 100 μg/ml precursor, starting cell concentration not determined
# Method: as §3
# Chlorella minutisima = test: as above; assay type: cell-based; conditions: 100 μg/ml precursor, starting cell concentration 1.52 × 10^6
# Method: as §3
# [2] = system: Phaeodactylum tricornutum; test: as above; assay type: cell-based; conditions: 200 μg/ml precursor, starting cell concentration 1.18 × 10^6
# Method: as §3
# Scenedesmus obliquus = test: as above; assay type: cell-based; conditions: 200 μg/ml precursor, starting cell concentration 6.38 × 10^6
# Method: as §3
# Botrydium = test: growth (cell counts) of microalgae in the presence of precursor compound; assay type: cell-based; conditions: 100 μg/ml, cell counts on days 0, 2, 4 and 7, relative to growth controls
# Method: as §1
# Chlorella = test: as above; assay type: cell-based, Chlorella minutisima; conditions: 100 μg/ml, cell counts on days 0, 2, 4 and 7, relative to growth controls
# Method: as §1
# as §1, with “VIII” for “III”, “Precursor 2.” for “the precursor compound.”, “tert-butyl[S-(R*-R*)]-(−)-(1-oxiranyl-2-phenylethylcarbamate)” for “(S)-(−)-3-(Benzyloxycarbonyl)-4-oxazolidinecarboxylic acid”, “concentration in the culture medium” for “concentration”
smiles,measurement,setting,value
"O=C(O)[C@@H]1COCN1C(=O)OCc1ccccc1 [precursor compound, (S)-(−)-3-(Benzyloxycarbonyl)-4-oxazolidinecarboxylic acid]",effect on growth of Chlamydomonas,Chlamydomonas,"moderate, but not severe decreases in growth relative to the growth controls"
same,effect on growth of Platymonas,Platymonas,causing cell death
same,effect on growth of Phaeodactylum,Phaeodactylum,"moderate, but not severe decreases in growth relative to the growth controls"
same,Final Cell Concentration,Cryptocrysis rubens,3.09 × 10^6
same,Final Cell Concentration,Moromastix sp.,7.4 × 10^5
same,Final Cell Concentration,Chloromonas rosae,1.13 × 10^6
same,Final Cell Concentration,Olithodiscus sp.,1.3 × 10^6
same,Final Cell Concentration,[1],1.58 × 10^9
same,Final Cell Concentration,Cryptomonas ovata,1.3 × 10^5
same,Final Cell Concentration,Euglena gracilis,6.6 × 10^5
same,Final Cell Concentration,Chlorella minutisima,1.08 × 10^7
same,Final Cell Concentration,[2],4.08 × 10^6
same,Final Cell Concentration,Scenedesmus obliquus,2.12 × 10^7
same,effect on growth of Botrydium,Botrydium,increased growth relative to the growth controls
same,effect on growth of Chlorella,Chlorella,increased growth relative to the growth controls
same,effect on growth of Chlorella,Chlorella; listed as Precursor 2 used in Example 1,negatively affected
